The text below walks through data of PubChem BioAssay (NCI).

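These data come from cells grown in 96-well plates and exposed to compound for 48 hours at five concentrations. Definition used: TGI = concentration required for complete inhibition of growth.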 Some results are limits rather than exact numbers.

The first experiment relates to HCT-116 colon. The experiment can be described thus: inhibition of tumour cell growth, NCI panel, 48 h.
`CCOP(=O)(OCC)C(c1ccc(F)cc1)N(C(=O)NC(F)(F)F)c1ccc(OC)cc1` (configuration not stated) displayed a TGI greater than 100 µM.
On the same count and under the same terms, to `CSC(=S)N/N=C(\C)c1ccc(S(=O)(=O)N(C)c2ccccc2)cc1` belongs greater than 100 µM; to `O=C1c2ccccc2-c2c1c(-c1ccc(F)cc1)nc1ccc3ccccc3c21`, greater than 100 µM.
Still for that read-out and setting: to `COc1ccc2c(c1)/C(=C\c1c(Cl)nc3sc(C)cn13)C(=O)N2` belongs 14.1 µM; to `CCOC(=O)c1ccc(NCC#CCN2CCOCC2)cc1`, greater than 100 µM.
On the same count and under the same terms, in the case of `COc1ccc(-c2nc(SCC(=O)N/N=C/c3ccc(N(C)C)cc3)[nH]c2-c2ccc(OC)cc2)cc1` it was greater than 100 µM.
In turn, `COc1cccc2c(=O)oc(-c3ccc(C(C)(C)C)cc3)nc12` showed a TGI greater than 100 µM.
The same measure, in the same setting: to `COc1ccc2c(c1)OCC1Cc3ccccc3OC21` (configuration not stated) belongs greater than 100 µM; to `COC(=O)C1CCC(=O)N1C(c1ccc(OC)cc1)c1ccc2c(c1)OCO2` (configuration not stated), greater than 100 µM; to `CCOC(=O)c1cn2c(nc1=O)N[C@H]1CCCC[C@@H]12`, greater than 100 µM.
Same read-out and setting: in the case of `CCC1(CC)C(=O)NN(C(=O)c2ccccc2)C1=O` it was greater than 100 µM; in that of `CCNC(=O)Cc1nc2c(N)ncnc2n1C1OC(CO)C(O)C1O` (configuration not stated), greater than 100 µM; in that of `Cc1cc(C(=O)CCCCOc2ccc(C3=NCCO3)cc2)c(C)n1C`, greater than 100 µM.
Same read-out and setting: in the case of `[O-][n+]1ccccc1Sc1nc(Sc2cccc[n+]2[O-])nc(Sc2cccc[n+]2[O-])n1` it was 2.53 µM.

In another experiment the test system is U251 CNS. Description: inhibition of tumour cell growth, NCI panel, 48 h.
As to `NS(=O)(=O)c1cc2c(cc1Cl)NC(CCC(=O)O)=NS2(=O)=O`, the TGI is greater than 100 µM.
The same measure, in the same setting: to `CCOC(=O)c1nc2c(nc1C(=O)OCC)C(=O)c1ccccc1C2=O` belongs 2.74 µM; to `Cc1ccc2c(c1)C(=O)C1(Cc3ccccc3C1=O)C2` (configuration not stated), greater than 100 µM; to `CC(=O)Nc1nc(C#N)[nH]c1C#N`, greater than 100 µM.
Still for that read-out and setting: to `O=C(O)/C=C(/C(=O)O)C12CCN3CC4=CCOC5CC(=O)NC1C5C4CC32` (configuration not stated) belongs greater than 100 µM; to `Cc1c(S(=O)(=O)c2ccccc2)c(N)n(CCN(C)C)c1C`, greater than 100 µM.
On to `CS(=O)c1ncc2c(n1)-c1ccccc1OC2` (configuration not stated), for which the TGI is greater than 100 µM.
On the same count and under the same terms, in the case of `O=[N+]([O-])c1ccc(Oc2c(Cl)cc(S(=O)(=O)/N=C(\NO)Nc3ccc(Cl)cc3)cc2Cl)cc1` it was 25.7 µM; in that of `Cc1cc(N(CCOS(C)(=O)=O)CCOS(C)(=O)=O)ccc1C=O`, 67.4 µM.
Same read-out and setting: to `O=c1[nH]c(=O)n(C2OC(CO)C(O)C2O)c2nc(-c3ccc(-c4ccccc4)cc3)cnc12` (configuration not stated) belongs greater than 100 µM; to `CN1CSC(=S)N(c2c3ccccc3nc3ccc(Br)cc23)C1`, 20.4 µM.
Still for that read-out and setting: in the case of `O=C(O)c1ccccc1CC1Cc2ccccc2C1=O` (configuration not stated) it was greater than 100 µM; in that of `NS(=O)(=O)c1cc(Cl)c(NC(=S)NC(=O)Nc2ccc(Cl)c(Cl)c2)c(Cl)c1`, greater than 100 µM; in that of `Cc1cn(C2CC(O)C(CO)O2)c(=O)[nH]c1=O` (configuration not stated), greater than 5000 µM.
In turn, `CCOP(=O)(OCC)C(c1ccc(F)cc1)N(C(=O)NC(F)(F)F)c1ccc(OC)cc1` (configuration not stated) showed a TGI greater than 100 µM.
Still for that read-out and setting: to `CSC(=S)N/N=C(\C)c1ccc(S(=O)(=O)N(C)c2ccccc2)cc1` belongs greater than 100 µM; to `O=C1c2ccccc2-c2c1c(-c1ccc(F)cc1)nc1ccc3ccccc3c21`, greater than 100 µM; to `COc1ccc2c(c1)/C(=C\c1c(Cl)nc3sc(C)cn13)C(=O)N2`, 11.6 µM.
On the same count and under the same terms, in the case of `CCOC(=O)c1ccc(NCC#CCN2CCOCC2)cc1` it was greater than 100 µM; in that of `COc1ccc(-c2nc(SCC(=O)N/N=C/c3ccc(N(C)C)cc3)[nH]c2-c2ccc(OC)cc2)cc1`, greater than 100 µM.
`COc1cccc2c(=O)oc(-c3ccc(C(C)(C)C)cc3)nc12` showed a TGI greater than 100 µM.
Same read-out and setting: to `COc1ccc2c(c1)OCC1Cc3ccccc3OC21` (configuration not stated) belongs greater than 10 µM; to `COC(=O)C1CCC(=O)N1C(c1ccc(OC)cc1)c1ccc2c(c1)OCO2` (configuration not stated), greater than 100 µM.
The same measure, in the same setting: to `CCOC(=O)c1cn2c(nc1=O)N[C@H]1CCCC[C@@H]12` belongs greater than 100 µM; to `CCC1(CC)C(=O)NN(C(=O)c2ccccc2)C1=O`, greater than 100 µM; to `CCNC(=O)Cc1nc2c(N)ncnc2n1C1OC(CO)C(O)C1O` (configuration not stated), greater than 100 µM.
Turning to `Cc1cc(C(=O)CCCCOc2ccc(C3=NCCO3)cc2)c(C)n1C`, the TGI was greater than 100 µM.
`[O-][n+]1ccccc1Sc1nc(Sc2cccc[n+]2[O-])nc(Sc2cccc[n+]2[O-])n1` displayed a TGI of 3.3 µM.

For another experiment, the system named is MCF7 breast. Description: inhibition of tumour cell growth, NCI panel, 48 h.
For `NS(=O)(=O)c1cc2c(cc1Cl)NC(CCC(=O)O)=NS2(=O)=O`, the TGI was greater than 100 µM.
Still for that read-out and setting: in the case of `CCOC(=O)c1nc2c(nc1C(=O)OCC)C(=O)c1ccccc1C2=O` it was 1.17 µM; in that of `Cc1ccc2c(c1)C(=O)C1(Cc3ccccc3C1=O)C2` (configuration not stated), greater than 100 µM.
In the case of `CC(=O)Nc1nc(C#N)[nH]c1C#N`, the TGI is greater than 100 µM.
Same read-out and setting: in the case of `O=C(O)/C=C(/C(=O)O)C12CCN3CC4=CCOC5CC(=O)NC1C5C4CC32` (configuration not stated) it was greater than 100 µM.
On the same count and under the same terms, in the case of `Cc1c(S(=O)(=O)c2ccccc2)c(N)n(CCN(C)C)c1C` it was greater than 100 µM; in that of `CS(=O)c1ncc2c(n1)-c1ccccc1OC2` (configuration not stated), greater than 100 µM; in that of `O=[N+]([O-])c1ccc(Oc2c(Cl)cc(S(=O)(=O)/N=C(\NO)Nc3ccc(Cl)cc3)cc2Cl)cc1`, 24.1 µM.
For the molecule `Cc1cc(N(CCOS(C)(=O)=O)CCOS(C)(=O)=O)ccc1C=O`, the TGI worked out at 32 µM.
For `O=c1[nH]c(=O)n(C2OC(CO)C(O)C2O)c2nc(-c3ccc(-c4ccccc4)cc3)cnc12` (configuration not stated), the TGI is greater than 100 µM.
Take `CN1CSC(=S)N(c2c3ccccc3nc3ccc(Br)cc23)C1`: the TGI was found to be 24.1 µM.
The same measure, in the same setting: to `O=C(O)c1ccccc1CC1Cc2ccccc2C1=O` (configuration not stated) belongs greater than 100 µM; to `NS(=O)(=O)c1cc(Cl)c(NC(=S)NC(=O)Nc2ccc(Cl)c(Cl)c2)c(Cl)c1`, 53.8 µM; to `Cc1cn(C2CC(O)C(CO)O2)c(=O)[nH]c1=O` (configuration not stated), greater than 4300 µM.
Same read-out and setting: in the case of `CCOP(=O)(OCC)C(c1ccc(F)cc1)N(C(=O)NC(F)(F)F)c1ccc(OC)cc1` (configuration not stated) it was greater than 100 µM; in that of `CSC(=S)N/N=C(\C)c1ccc(S(=O)(=O)N(C)c2ccccc2)cc1`, greater than 100 µM.
Same read-out and setting: in the case of `O=C1c2ccccc2-c2c1c(-c1ccc(F)cc1)nc1ccc3ccccc3c21` it was greater than 100 µM.
In turn, `COc1ccc2c(c1)/C(=C\c1c(Cl)nc3sc(C)cn13)C(=O)N2` returned a TGI of 14.2 µM.
Still for that read-out and setting: to `CCOC(=O)c1ccc(NCC#CCN2CCOCC2)cc1` belongs greater than 100 µM; to `COc1ccc(-c2nc(SCC(=O)N/N=C/c3ccc(N(C)C)cc3)[nH]c2-c2ccc(OC)cc2)cc1`, greater than 100 µM.
Same read-out and setting: to `COc1cccc2c(=O)oc(-c3ccc(C(C)(C)C)cc3)nc12` belongs greater than 100 µM.
Still for that read-out and setting: in the case of `COc1ccc2c(c1)OCC1Cc3ccccc3OC21` (configuration not stated) it was greater than 100 µM; in that of `COC(=O)C1CCC(=O)N1C(c1ccc(OC)cc1)c1ccc2c(c1)OCO2` (configuration not stated), greater than 100 µM; in that of `CCOC(=O)c1cn2c(nc1=O)N[C@H]1CCCC[C@@H]12`, greater than 100 µM.
In turn, `CCC1(CC)C(=O)NN(C(=O)c2ccccc2)C1=O` returned a TGI greater than 100 µM.
